According to US20240226034A1, “Use of Terpenoids and Salicylates as Anesthetics and Analgesics” (THE REGENTS OF THE UNIVERSITY OF CALIFORNIA, priority 2021, published 2024):
pEC50, pIC50: −log10 of the molar value. Where “and” joins values, the source holds several entries; their conditions need not be identical. Equal values may be shown once. Entries after “also recorded” stand apart in the source; their conditions may differ.

Experiments:
[1] = system: Sprague Dawley rats; assay: Another experiment: IV doses of 10% (v/v) solutions in […]; type: in vivo, rat
Description: In another experiment, a 10% (v/v) solution of methyl salicylate in […]®, and a 10% (v/v) solution of L-carvone in […]® were each tested in Sprague Dawley rats that each weighed approximately 300 g.

[2] = cited from earlier work
[3] = Plasma concentration during IV infusion anesthesia (LC-MS); type: in vivo, rat
Method: Lateral tail veins were catheterized in eight, 70-day-old, male, Sprague Dawley rats weighing 309±6 g. A 10% solution of L-carvone or methyl salicylate in 20% […]® was each administered IV to 8 rats (4 animals per drug treatment) by using a syringe pump at a rate of 12 mL/h. When rats lost their righting reflex and were unresponsive to a tail clamp, a midline laparotomy was performed, the abdominal aorta catheterized, and the rat exsanguinated. Blood was collected in a heparin tube and centrifuged; plasma was separated and stored in cryogenic tubes at −80° C. until analysis.
Serum calibrations were prepared by dilution of working standard solutions of methyl salicylate and L-carvone with drug-free rat serum (Innovative Research, Novi, MI, USA) to concentrations ranging from 0.05 to 500 μg/mL. Calibration curves and negative control samples were prepared fresh for each quantitative assay. In addition, quality control samples (drug-free rat serum fortified with analyte at 3-4 concentrations within the standard curve) were included as an additional check of accuracy.
Prior to analysis, 100 μL of each serum sample was diluted with 100 μL of acetonitrile (ACN):1 M acetic acid (9:1, v:v) and 50 μL of methanol to precipitate proteins. The samples were vortexed for 2 min to mix, refrigerated for 20 min, vortexed for an additional 1 min, centrifuged (4,300 rpm/3, 102 g) for 10 min at 4 °C, and 10 μL injected into the liquid chromatography tandem mass spectrometry system.
Quantitative analysis was performed on an LTQ XL Orbitrap mass spectrometer (Thermo Scientific, San Jose, CA, USA) coupled with a Waters Acquity UPLC (Milford, MA, USA). […] Detection and quantification were conducted using full-scan accurate mass from 145 to 160 (m/z). […]
The precision and accuracy of the assay was determined by assaying quality control samples in replicates (n=6). […] The technique was optimized to provide limits of quantitation of 0.5 μg/mL and 0.05 μg/mL and limits of detection of approximately 0.1 μg/mL and 0.025 μg/mL for methyl salicylate and L-carvone, respectively.

[4] = biological target: T1, GABAA receptors (human α1 GABRA1 and rat β2 GABRB2 subunits) (UniProt P14867+P63138); assay: Two-electrode voltage clamp of GABAA receptors expressed in Xenopus oocytes; type: cell-based; conditions: for effect on GABAA receptor currents: dose-response, oocytes
T1 construct: expressed in transfected cells; host or cells: Xenopus laevis oocytes (intranuclear DNA injection)
T1 sequence (P14867 28-456): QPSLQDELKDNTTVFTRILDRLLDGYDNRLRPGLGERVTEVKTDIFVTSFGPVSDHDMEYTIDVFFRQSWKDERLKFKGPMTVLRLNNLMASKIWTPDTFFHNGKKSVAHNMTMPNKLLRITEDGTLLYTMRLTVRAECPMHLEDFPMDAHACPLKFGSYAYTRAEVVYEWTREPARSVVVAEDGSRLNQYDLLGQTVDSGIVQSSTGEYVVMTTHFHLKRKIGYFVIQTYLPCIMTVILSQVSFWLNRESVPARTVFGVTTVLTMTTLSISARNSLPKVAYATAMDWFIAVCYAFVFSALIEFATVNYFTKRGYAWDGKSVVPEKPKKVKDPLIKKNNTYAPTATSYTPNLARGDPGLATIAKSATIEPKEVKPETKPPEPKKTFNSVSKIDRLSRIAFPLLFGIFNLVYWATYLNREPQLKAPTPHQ
T1 sequence (P63138 25-474 limits assumed): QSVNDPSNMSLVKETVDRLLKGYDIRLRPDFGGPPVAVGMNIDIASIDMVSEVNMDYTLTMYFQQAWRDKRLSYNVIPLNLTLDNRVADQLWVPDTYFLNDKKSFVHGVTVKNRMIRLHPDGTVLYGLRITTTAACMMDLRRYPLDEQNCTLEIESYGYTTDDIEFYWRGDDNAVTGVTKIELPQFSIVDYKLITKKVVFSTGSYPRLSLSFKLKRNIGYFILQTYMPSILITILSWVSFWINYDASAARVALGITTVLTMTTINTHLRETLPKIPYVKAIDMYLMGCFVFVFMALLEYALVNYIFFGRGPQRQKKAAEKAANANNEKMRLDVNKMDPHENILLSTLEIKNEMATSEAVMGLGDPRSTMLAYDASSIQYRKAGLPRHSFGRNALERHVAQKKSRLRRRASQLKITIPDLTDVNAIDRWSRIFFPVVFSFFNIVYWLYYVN
Description: Ovaries removed from sexually mature Xenopus laevis frogs were bluntly dissected to remove surrounding connective tissue and then digested with 0.2% type I collagenase in an oocyte Ringer's solution. Once free from thecal cells and connective tissue, individual oocytes were rinsed, sorted, and stored in a modified Barth's solution (R. Brosnan et al., […]. 103, (2006): 86; L. Yang, P. S. Milutinovic, […]. Sonner, […]. 105, (2007): 393; […]. Fukushima, & […]. 44, (2017): 577; […], Pharmacology 103, (2019): 10). Heteromeric GABAA receptors were expressed in oocytes by blind intranuclear injection of 1 ng DNA encoding the human al (GABRA1) and rat B2 (GABRB2) subunits in a 1:1 ratio. NMDA receptors were expressed by intracytoplasmic injection of 5 ng RNA encoding rat NR1 (GRIN1) and rat NR2a (GRIN2A) subunits in a 1:1 ratio. Nax 1.2 channels were expressed by injection of 5 ng RNA encoding the human SCN2A gene. Two-electrode voltage clamp studies of GABAA receptors were carried out in a 0.25-mL linear perfusion chamber. Perfusates were delivered by using a syringe pump at 1.5 mL/min using gastight glass syringes and polytetrafluoroethylene tubing. […] King Precision Glass, Claremont, CA, USA) connected to separate […] (Axon Instruments HS2A; Molecular Devices, San Jose, CA, USA) through which voltage was clamped at -80 mV and current was passed via a computer-controlled amplifier (Axon Instruments GeneClamp 500B; Molecular Devices). Oocytes were perfused with frog Ringer's (FR) solution containing 115 mM NaCl, 2.5 mM KCl, 1.8 mM CaCl2), and 10 mM HEPES prepared from ACS-grade chemicals and 18.2 MΩ H2O, filtered and pH adjusted to 7.4. […] After 30 s, the perfusate was switched back to FR solution. This process was repeated until a stable baseline response was achieved. Next, FR containing either L-carvone (99%; Sigma-Aldrich, St. Louis, MO, USA) or methyl salicylate (>99%; Sigma-Aldrich) at the test concentration was used to perfuse the oocyte for 1.5 min, and then the oocyte was perfused with FR+GABA solution containing this same drug and concentration for 30 s. […] Uninjected oocytes served as negative controls. Only one drug and concentration were studied per oocyte. […] Percent change in current was calculated as follows: [formula] • where IB is the baseline pre-drug current peak and ID is the drug current peak. For each drug and ion channel, data were fit to a Hill equation using nonlinear regression with sequential quadratic programming and bootstrap estimates of parameter standard errors (SPSS, v. 27; IBM, Armonk, NY, USA). In the model, maximum drug inhibition (Imax) was constrained to not be less than -100%. Initial parameter estimates were seeded with values based on visual inspection of respective dose-response curves in order to facilitate model convergence.

[5] = biological target: T2, human benzodiazepine-sensitive α1β2γ2s GABAA receptors (Homo sapiens, UniProt P14867+P18507+P47870); conditions: concentrations up to 0.12 mM; cited from earlier work
T2 construct: host or cells: frog oocytes
T2 sequence (P14867 28-456): as the sequence (P14867 28-456) above
T2 sequence (P47870 26-474 isoform P47870-1 limits assumed): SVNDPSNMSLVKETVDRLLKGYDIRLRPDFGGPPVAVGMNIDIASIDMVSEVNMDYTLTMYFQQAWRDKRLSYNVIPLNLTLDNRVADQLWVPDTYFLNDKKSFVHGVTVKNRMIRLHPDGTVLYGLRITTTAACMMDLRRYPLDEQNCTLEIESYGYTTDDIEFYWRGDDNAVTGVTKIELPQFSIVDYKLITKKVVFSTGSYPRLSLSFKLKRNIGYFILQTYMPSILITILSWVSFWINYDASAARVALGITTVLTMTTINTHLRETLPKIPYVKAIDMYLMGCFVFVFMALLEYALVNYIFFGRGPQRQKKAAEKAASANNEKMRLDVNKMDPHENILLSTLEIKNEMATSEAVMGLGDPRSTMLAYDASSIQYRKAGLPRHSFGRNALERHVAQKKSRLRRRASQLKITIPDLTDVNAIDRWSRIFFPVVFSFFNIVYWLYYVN
T2 sequence (P18507 40-467 isoform P18507-1 limits assumed): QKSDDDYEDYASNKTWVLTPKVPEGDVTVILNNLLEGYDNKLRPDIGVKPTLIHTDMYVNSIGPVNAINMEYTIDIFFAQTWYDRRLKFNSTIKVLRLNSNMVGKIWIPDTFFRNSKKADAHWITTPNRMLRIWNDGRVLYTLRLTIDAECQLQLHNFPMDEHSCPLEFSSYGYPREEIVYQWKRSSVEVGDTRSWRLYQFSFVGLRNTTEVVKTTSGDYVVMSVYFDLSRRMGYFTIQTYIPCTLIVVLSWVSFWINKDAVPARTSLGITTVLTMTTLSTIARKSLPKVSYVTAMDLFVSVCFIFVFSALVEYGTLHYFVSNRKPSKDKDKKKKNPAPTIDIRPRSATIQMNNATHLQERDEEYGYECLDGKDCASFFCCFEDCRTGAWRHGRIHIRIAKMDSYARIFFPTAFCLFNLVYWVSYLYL

[6] = Sprague Dawley, rat, in vivo, iv
[7] = at the mean plasma concentration during IV infusion anesthesia in rats

COC(=O)c1ccccc1O [methyl salicylate]
duration of loss of righting reflex ([1]; 0.2 mL IV): 30 s | time to ambulatory after return of righting ([1]; 0.2 mL IV): 40 s | time to loss of righting reflex ([1]; 0.2 mL IV): ≤ 25 s | time to loss of righting ([1]; 0.4 mL IV): 15 s | time from apnea to confirmed cardiac arrest [1, 6]: less than 1 minutes | time from loss of righting to apnea [1, 6]: 5 s | gross necropsy performed 2 days later ([1]; rat, in vivo, iv): No evidence of hepatic, renal, cardiac, or pulmonary injury | solubility in water relative to cutoff values for modulation of the 3 ion channels [2]: more soluble in water than the cutoff values | mean plasma concentration (±SEM) during IV infusion ([3]; male, Sprague Dawley, rat, in vivo, iv): 2700 ± 400 µM | potentiation of GABAA receptors [4, 7]: 30% | effect on GABAA receptor currents [4]: potently inhibited; also recorded: biphasic effect | pIC50 ([4]; high-affinity inhibitory site, 50 μM GABA, oocytes clamped at −80 mV, read-out: IC50, inhibition of GABAA receptor currents): 6.96 and ~7.00 | Hill coefficient, GABAA receptor potentiation site ([4]; low-affinity binding): less than 1 | concentration for second positive allosteric GABAA site relative to high-affinity site ([4]; potentiation site vs inhibitory site): about 50,000 times | pEC50 ([4]; second site, high concentrations, read-out: median effective concentration, potentiation of GABAA currents): 2.28

L-carvone
response of α1β2γ2s GABAA receptors [5]: minimal response | duration of general anesthesia effects ([1]; 0.2 mL IV): 1 min | gross necropsy performed 2 days later ([1]; 0.2 mL IV): No evidence of hepatic, renal, cardiac, or pulmonary injury | time after administration to awake and ambulatory ([1]; 0.2 mL IV): ≤ 3 min | time to general anesthesia (loss of righting reflex and tail clamp response) ([1]; 0.2 mL IV, approx. 300 g rats): ≤ 30 s | apnea after onset of anesthesia ([1]; 0.4 mL IV): almost immediately | time from apnea to confirmed cardiac arrest ([1]; 0.4 mL IV): 2 min | time to anesthesia ([1]; 0.4 mL IV): ≤ 45 s | plasma concentration relative to that for methyl salicylate ([3]; at the time general anesthesia was achieved): 3 times | mean plasma concentration (±SEM) during IV infusion ([3]; rats N=4, at loss of righting reflex and tail clamp response): 7900 ± 3000 µM | GABAA receptor current at highest concentration ([4]; 10 mM drug): near or complete loss of channel currents; also recorded: almost entirely inhibited | inhibition of GABAA receptors [4, 7]: 96% | Hill coefficient, GABAA receptor inhibition ([4]; dose-response model): ~1 | effect on GABAA receptor currents [4]: dose-dependent inhibition
